Assay results reported in ChEMBL document CHEMBL5209565, “pH biosensor based assay for SLC16A3 using HEK-293 SLC16A3 OE cells” (2022).

Biological target: T1, Monocarboxylate transporter 4 (Homo sapiens) (UniProt O15427)
T1 sequence (whole entry): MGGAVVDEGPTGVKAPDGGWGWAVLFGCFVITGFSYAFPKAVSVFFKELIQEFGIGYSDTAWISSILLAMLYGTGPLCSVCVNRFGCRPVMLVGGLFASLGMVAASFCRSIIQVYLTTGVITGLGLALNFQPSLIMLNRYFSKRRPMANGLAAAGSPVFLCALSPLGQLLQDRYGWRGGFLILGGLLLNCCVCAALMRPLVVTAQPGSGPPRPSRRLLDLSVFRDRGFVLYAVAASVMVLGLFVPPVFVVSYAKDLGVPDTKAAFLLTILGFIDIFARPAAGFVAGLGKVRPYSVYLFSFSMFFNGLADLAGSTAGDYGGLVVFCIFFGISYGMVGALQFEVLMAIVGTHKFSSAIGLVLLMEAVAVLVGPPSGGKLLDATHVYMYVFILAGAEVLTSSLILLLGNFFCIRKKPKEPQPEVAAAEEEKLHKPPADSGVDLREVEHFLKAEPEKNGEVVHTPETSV
Assay: Substrate uptake by the monocarboxylate transporter 4 (MCT4, SLC16A3) as assessed by a sensor pH-sensitive genetically encoded fluorescent sensor (pHAxensor) in HEK-293 JumpIN-SLC16A3 cells (PubChem AID: 1794833)
Assay type: functional, cell-based
Details: HEK293

## CC(O)C(=O)O (stereo unspecified)
  proof of principle: Substrate. In Comparison To Wild-Type And Not Induced Cells, Cells With Induced Slc16A3 Expression Showed A Specific Transporter Activity, Upon Substrate Addition, Detected As Decrease Of Intracellular Ph, Recorded As Quenching Of The Sensor Fluorescence Signal.
